Results reported in PubChem BioAssay (NCI).
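Abbreviation: GI50, concentration required for 50% inhibition of growth. TGI: concentration producing complete growth inhibition.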

Key:
Test in all cases: DTP human tumour cell line panel, 384-well format
UACC-62 melanoma = test system: UACC-62 melanoma
HOP-62 NSCLC = test system: HOP-62 NSCLC
MDA-MB-435 melanoma = test system: MDA-MB-435 melanoma
UO-31 renal = test system: UO-31 renal
NCI/ADR-RES ovarian = test system: NCI/ADR-RES ovarian
HCT-116 colon = test system: HCT-116 colon
MALME-3M melanoma = test system: MALME-3M melanoma
LOX IMVI melanoma = test system: LOX IMVI melanoma
MDA-MB-468 breast = test system: MDA-MB-468 breast
OVCAR-3 ovarian = test system: OVCAR-3 ovarian
SW-620 colon = test system: SW-620 colon
NCI-H522 lung = test system: NCI-H522 lung
M14 melanoma = test system: M14 melanoma
SK-OV-3 ovarian = test system: SK-OV-3 ovarian
SNB-19 CNS = test system: SNB-19 CNS
HCC-2998 colon = test system: HCC-2998 colon
SF-539 CNS = test system: SF-539 CNS
HOP-92 NSCLC = test system: HOP-92 NSCLC
U251 glioblastoma = test system: U251 glioblastoma
HCT-15 colon = test system: HCT-15 colon
IGROV1 ovarian = test system: IGROV1 ovarian
BT-549 breast = test system: BT-549 breast
OVCAR-4 ovarian = test system: OVCAR-4 ovarian
NCI-H460 NSCLC = test system: NCI-H460 NSCLC
DU-145 prostate = test system: DU-145 prostate
K-562 leukemia = test system: K-562 leukemia
TK-10 renal = test system: TK-10 renal
HS 578T breast = test system: HS 578T breast
MCF7 breast = test system: MCF7 breast
KM12 colon = test system: KM12 colon
T-47D breast = test system: T-47D breast
SNB-75 CNS = test system: SNB-75 CNS
UACC-257 melanoma = test system: UACC-257 melanoma
A498 renal = test system: A498 renal
A549 NSCLC = test system: A549 NSCLC
MDA-MB-231 breast = test system: MDA-MB-231 breast
PC-3 prostate = test system: PC-3 prostate
EKVX NSCLC = test system: EKVX NSCLC
ACHN renal = test system: ACHN renal
NCI-H226 lung = test system: NCI-H226 lung
OVCAR-8 ovarian = test system: OVCAR-8 ovarian
HL-60(TB) leukemia = test system: HL-60(TB) leukemia
NCI-H322M lung = test system: NCI-H322M lung
SF-268 CNS = test system: SF-268 CNS
SK-MEL-5 melanoma = test system: SK-MEL-5 melanoma
SN12C renal = test system: SN12C renal
SK-MEL-28 melanoma = test system: SK-MEL-28 melanoma
OVCAR-5 ovarian = test system: OVCAR-5 ovarian
CAKI-1 renal = test system: CAKI-1 renal
RPMI-8226 leukemia = test system: RPMI-8226 leukemia
SF-295 CNS = test system: SF-295 CNS
NCI-H23 lung = test system: NCI-H23 lung
COLO 205 colon = test system: COLO 205 colon
CCRF-CEM leukemia = test system: CCRF-CEM leukemia
RXF 393 renal = test system: RXF 393 renal
MOLT-4 leukemia = test system: MOLT-4 leukemia
HT29 colon = test system: HT29 colon
786-0 renal = test system: 786-0 renal

## NS(=O)(=O)OC[C@H]1C[C@@H](Nc2ccnc3cc(-c4cccc(SC(F)(F)F)c4)nn23)[C@H](O)[C@@H]1O
UACC-62 melanoma
  GI50: 17 nM
  TGI: 32.2 nM
HOP-62 NSCLC
  GI50: < 10 nM
  TGI: 11.4 nM
MDA-MB-435 melanoma
  GI50: 17.4 nM
  TGI: 32.7 nM
UO-31 renal
  GI50: 20.5 nM
  TGI: 42.1 nM
NCI/ADR-RES ovarian
  GI50: 129 nM
  TGI: 260 nM
HCT-116 colon
  GI50: < 10 nM
  TGI: 11.3 nM
MALME-3M melanoma
  GI50: < 10 nM
  TGI: 21.5 nM
LOX IMVI melanoma
  GI50: < 10 nM
  TGI: < 10 nM
MDA-MB-468 breast
  GI50: < 10 nM
  TGI: < 10 nM
OVCAR-3 ovarian
  GI50: < 10 nM
  TGI: < 10 nM
SW-620 colon
  GI50: 14.4 nM
  TGI: 27.8 nM
NCI-H522 lung
  GI50: < 10 nM
  TGI: < 10 nM
M14 melanoma
  GI50: 15.8 nM
  TGI: 30.7 nM
SK-OV-3 ovarian
  GI50: 12.8 nM
  TGI: 25.9 nM
SNB-19 CNS
  GI50: < 10 nM
  TGI: 20.7 nM
HCC-2998 colon
  GI50: 13.1 nM
  TGI: 27.4 nM
SF-539 CNS
  GI50: < 10 nM
  TGI: < 10 nM
HOP-92 NSCLC
  GI50: 12.2 nM
  TGI: 25.4 nM
U251 glioblastoma
  GI50: < 10 nM
  TGI: < 10 nM
HCT-15 colon
  GI50: 33.2 nM
  TGI: 117 nM
IGROV1 ovarian
  GI50: 15.1 nM
  TGI: 30.1 nM
BT-549 breast
  GI50: < 10 nM
  TGI: 16.1 nM
OVCAR-4 ovarian
  GI50: 15.9 nM
  TGI: 29.9 nM
NCI-H460 NSCLC
  GI50: 147 nM
  TGI: 286 nM
DU-145 prostate
  GI50: < 10 nM
  TGI: 44.9 nM
K-562 leukemia
  GI50: < 10 nM
  TGI: < 10 nM
TK-10 renal
  GI50: 27.3 nM
  TGI: 85.3 nM
HS 578T breast
  GI50: 14.2 nM
  TGI: 28.4 nM
MCF7 breast
  GI50: 11.5 nM
  TGI: 31.2 nM
KM12 colon
  GI50: 25.5 nM
  TGI: 59.7 nM
T-47D breast
  GI50: < 10 nM
  TGI: 12.4 nM
SNB-75 CNS
  GI50: 19 nM
  TGI: 34.4 nM
UACC-257 melanoma
  GI50: 14.7 nM
  TGI: 28.6 nM
A498 renal
  GI50: < 10 nM
  TGI: 21.2 nM
A549 NSCLC
  GI50: 59.6 nM
  TGI: 191 nM
MDA-MB-231 breast
  GI50: < 10 nM
  TGI: 23.4 nM
PC-3 prostate
  GI50: 17.5 nM
  TGI: 32.4 nM
EKVX NSCLC
  GI50: 14 nM
  TGI: 28 nM
ACHN renal
  GI50: 59 nM
  TGI: 190 nM
NCI-H226 lung
  GI50: < 10 nM
  TGI: < 10 nM
OVCAR-8 ovarian
  GI50: < 10 nM
  TGI: 16.5 nM
HL-60(TB) leukemia
  GI50: < 10 nM
  TGI: < 10 nM
NCI-H322M lung
  GI50: 11.3 nM
  TGI: 24.2 nM
SF-268 CNS
  GI50: < 10 nM
  TGI: < 10 nM
SK-MEL-5 melanoma
  GI50: < 10 nM
  TGI: < 10 nM
SN12C renal
  GI50: 21.4 nM
  TGI: 43.7 nM
SK-MEL-28 melanoma
  GI50: < 10 nM
  TGI: < 10 nM
OVCAR-5 ovarian
  GI50: 12.8 nM
  TGI: 34.2 nM
CAKI-1 renal
  GI50: 18.9 nM
  TGI: 36 nM
RPMI-8226 leukemia
  GI50: 202 nM
  TGI: 348 nM
SF-295 CNS
  GI50: 48.1 nM
  TGI: 166 nM
NCI-H23 lung
  GI50: 19.3 nM
  TGI: 51.3 nM
COLO 205 colon
  GI50: < 10 nM
  TGI: 14.9 nM
CCRF-CEM leukemia
  GI50: < 10 nM
  TGI: < 10 nM
RXF 393 renal
  GI50: < 10 nM
  TGI: 18.4 nM
MOLT-4 leukemia
  GI50: 12.9 nM
  TGI: 26 nM
HT29 colon
  GI50: 94.7 nM
  TGI: 222 nM
786-0 renal
  GI50: 18.7 nM
  TGI: 36.1 nM
